In the supplement of paper PMC11061612:

Columns and labels:
Experiment in all cases: Bliss excess, mean over the matrix (fraction); higher = more synergy
[1] = system: ALL-SIL (T-Lymphoblastic Leukemia)
How it was run: (§1)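 Cell lines in DMEM/F12 or RPMI with 10% FBS were plated in 1536-well plates, held 24 hours at 37°C, 5% CO2, then given two-drug dose matrices for 72 hours (DMSO typically 0.2%). Viability was read by CellTiter-Glo 2.0 luminescence and scaled as inhibition from 0 (vehicle wells) to 1 (blank wells). Combination Emax is the second-highest inhibition in the matrix; Bliss excess is observed combination effect minus expected EA + EB − EA·EB, EA and EB being single-agent effects.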

[2] = system: CADO-ES1 (Ewing's Sarcoma)
How it was run: as §1

[3] = system: Ca-Ski (Cervical Carcinoma)
How it was run: as §1

[4] = system: DU-145 (Prostate Carcinoma)
How it was run: as §1

[5] = system: EFO-21 (Ovarian Carcinoma)
How it was run: as §1

EW-1 (Ewing's Sarcoma) = system: EW-1 (Ewing's Sarcoma)
How it was run: as §1

[6] = system: HAL-01 (B-Lymphoblastic Leukemia)
How it was run: as §1

[7] = system: HCC2998 (Colorectal Carcinoma)
How it was run: as §1

[8] = system: KOPN-8 (B-Lymphoblastic Leukemia)
How it was run: as §1

[9] = system: LC-1-sq (Squamous Cell Lung Carcinoma)
How it was run: as §1

[10] = system: MDA-MB-453 (Breast Carcinoma)
How it was run: as §1

[11] = system: ME-180 (Cervical Carcinoma)
How it was run: as §1

[12] = system: MOG-G-UVW (Low Grade Glioma)
How it was run: as §1

[13] = system: NCI-H1838 (Lung Adenocarcinoma)
How it was run: as §1

[14] = system: NCI-H2122 (Lung Adenocarcinoma)
How it was run: as §1

[15] = system: NCI-H522 (Lung Adenocarcinoma)
How it was run: as §1

[16] = system: OACM5-1 (Esophageal Adenocarcinoma)
How it was run: as §1

[17] = system: OE33 (Esophageal Adenocarcinoma)
How it was run: as §1

SK-N-AS (Neuroblastoma) = system: SK-N-AS (Neuroblastoma)
How it was run: as §1

[18] = system: SW982 (Other Solid Carcinomas)
How it was run: as §1

Compound | Bliss excess [1] | Bliss excess [2] | Bliss excess [3] | Bliss excess [4] | Bliss excess [5] | Bliss excess (EW-1 (Ewing's Sarcoma)) | Bliss excess [6] | Bliss excess [7] | Bliss excess [8] | Bliss excess [9] | Bliss excess [10] | Bliss excess [11] | Bliss excess [12] | Bliss excess [13] | Bliss excess [14] | Bliss excess [15] | Bliss excess [16] | Bliss excess [17] | Bliss excess (SK-N-AS (Neuroblastoma)) | Bliss excess [18]
NC1(C(=O)N[C@@H](CCO)c2ccc(Cl)cc2)CCN(c2ncnc3[nH]ccc23)CC1 [Capivasertib] + CC(=O)c1c(C)c2cnc(Nc3ccc(N4CCNCC4)cn3)nc2n(C2CCCC2)c1=O [Palbociclib] (first compound max 10 µM, 7x7, partner max 10 µM) | -0.0889 | -0.0849 | 0.025 | -0.0272 | -0.0533 | -0.0124 | -0.0425 | -0.0745 | -0.0079 | -0.0208 | 0.0753 | -0.0638 | 0.0666 | 0.0468 | 0.0338 | -0.0696 | -0.0299 | -0.0055 | -0.0033 | -0.0523
NC1(C(=O)N[C@@H](CCO)c2ccc(Cl)cc2)CCN(c2ncnc3[nH]ccc23)CC1 [Capivasertib] + CC(C)n1c(=O)n(C)c2cnc3cc(F)c(-c4ccc(OCCCN5CCCCC5)nc4)cc3c21 [AZD1390] (first compound max 10 µM, 7x7, partner max 0.3 µM) | -0.0482 | -0.039 | -0.0436 | -0.0598 | -0.0361 | -0.0622 | -0.0354 | -0.0275 | -0.0611 | -0.0461 | -0.0471 | -0.033 | -0.0278 | -0.123 | -0.0103 | -0.0502 | -0.0676 | -0.0563 | -0.0657 | -0.0696
NC1(C(=O)N[C@@H](CCO)c2ccc(Cl)cc2)CCN(c2ncnc3[nH]ccc23)CC1 [Capivasertib] + CCN(CCO)CCCOc1ccc2c(Nc3cc(CC(=O)Nc4cccc(F)c4)[nH]n3)ncnc2c1 [AZD2811] (first compound max 10 µM, 7x7, partner max 1 µM) | -0.0631 | -0.0618 | 0.0121 | -0.0485 | -0.0156 | 0.0388 | -0.0779 | -0.0095 | -0.0632 | 0.0488 | 0.002 | -0.0096 | 0.0415 | -0.0356 | -0.0827 | -0.0817 | -0.0245 | -0.0137 | 0.0008 | 0.0184
NC1(C(=O)N[C@@H](CCO)c2ccc(Cl)cc2)CCN(c2ncnc3[nH]ccc23)CC1 [Capivasertib] + COc1nnc2ccc(N3CCC(c4ccc(OCCN5CCN(C)C(=O)[C@H]5C)cc4)CC3)nn12 [AZD5153] (first compound max 10 µM, 7x7, partner max 1 µM) | -0.0024 | 0.0331 | 0.0046 | 0.0276 | -0.046 | 0.0867 | -0.0429 | -0.0046 | -0.0463 | 0.0814 | -0.0148 | -0.051 | 0.0173 | 0.0032 | 0.0243 | -0.0698 | -0.019 | 0.0052 | -0.0159 | -0.0535
NC1(C(=O)N[C@@H](CCO)c2ccc(Cl)cc2)CCN(c2ncnc3[nH]ccc23)CC1 [Capivasertib] + C[C@@H]1COCCN1C2=NC(=NC(=C2)C3(CC3)[S@](=N)(=O)C)C4=C5C=CNC5=NC=C4 [AZD6738] (first compound max 10 µM, 7x7, partner max 10 µM) | -0.0322 | -0.0284 | 0.0076 | -0.0128 | -0.0322 | 0.0229 | -0.0267 | -0.0629 | -0.0253 | -0.0984 | -0.0798 | -0.066 | -0.0348 | -0.0733 | -0.0658 | -0.0483 | 0.0338 | -0.0225 | -0.0469 | -0.0382
NC1(C(=O)N[C@@H](CCO)c2ccc(Cl)cc2)CCN(c2ncnc3[nH]ccc23)CC1 [Capivasertib] + Cn1cnc2c(F)c(Nc3ccc(Br)cc3Cl)c(C(=O)NOCCO)cc21 [Selumetinib] (first compound max 10 µM, 7x7, partner max 10 µM) | 0.0381 | -0.0008 | 0.0246 | 0.0037 | -0.0352 | 0.0819 | 0.0548 | -0.0654 | 0.106 | 0.0027 | 0.0079 | -0.0232 | 0.0622 | -0.0124 | 0.0107 | -0.0098 | 0.0183 | 0.0301 | 0.0046 | 0.0235
COc1cccc2c1C(=O)c1c(O)c3c(c(O)c1C2=O)C[C@@](O)(C(=O)CO)C[C@@H]3O[C@H]1C[C@H](N)[C@H](O)[C@H](C)O1 [Doxorubicin] + Cc1cc2ncnn2cc1Nc1ncc2c(n1)n(C1CCOCC1)c(=O)n2C [AZD7648] (first compound max 1 µM, 7x7, partner max 10 µM) | 0.0857 | 0.111 | 0.0498 | 0.0052 | -0.03 | 0.126 | 0.0877 | 0.0344 | 0.119 | 0.117 | 0.0432 | 0.0438 | 0.101 | -0.0577 | 0.0669 | 0.0072 | 0.0577 | 0.0114 | 0.0664 | 0.0226
CS(=O)(=O)CCNCc1ccc(-c2ccc3ncnc(Nc4ccc(OCc5cccc(F)c5)c(Cl)c4)c3c2)o1 [Lapatinib] + C[C@@H](Oc1cc(-c2cnn(C3CCNCC3)c2)cnc1N)c1c(Cl)ccc(F)c1Cl [Crizotinib] (first compound max 10 µM, 7x7, partner max 10 µM) | 0.0033 | -0.0023 | -0.042 | -0.0242 | -0.0148 | -0.0239 | -0.0265 | -0.044 | -0.0482 | 0.0171 | 0.0232 | -0.0227 | 0.0013 | -0.0919 | -0.0181 | -0.0362 | -0.0691 | 0.151 | -0.0676 | -0.0579
CC(=O)c1c(C)c2cnc(Nc3ccc(N4CCNCC4)cn3)nc2n(C2CCCC2)c1=O [Palbociclib] + CC1(C)CCC(CN2CCN(c3ccc(C(=O)NS(=O)(=O)c4ccc(NCC5CCOCC5)c([N+](=O)[O-])c4)c(Oc4cnc5[nH]ccc5c4)c3)CC2)=C(c2ccc(Cl)cc2)C1 [Venetoclax] (first compound max 10 µM, 7x7, partner max 1 µM) | 0.0428 | -0.177 | -0.0543 | -0.0406 | -0.0638 | 0.0441 | -0.0461 | -0.0212 | -0.0341 | -0.0161 | 0.0091 | -0.0622 | -0.0282 | 0.0042 | -0.0327 | -0.0428 | 0.108 | -0.0458 | -0.0354 | -0.0508
CC(=O)c1c(C)c2cnc(Nc3ccc(N4CCNCC4)cn3)nc2n(C2CCCC2)c1=O [Palbociclib] + Cc1c2c(nn1C)CSCc1cc(n(C)n1)CSc1cc(c3ccccc3c1)OCCCc1c(C(=O)O)n(C)c3c-2c(Cl)ccc13 [AZD5991] (first compound max 10 µM, 7x7, partner max 1 µM) | -0.0576 | -0.0356 | -0.0239 | -0.0216 | -0.0458 | 0.0294 | 0.0597 | -0.0746 | 0.0082 | -0.0587 | -0.0218 | -0.0545 | -0.0122 | -0.0634 | -0.0218 | -0.0258 | -0.0456 | -0.0041 | -0.006 | -0.0151
CC(=O)c1c(C)c2cnc(Nc3ccc(N4CCNCC4)cn3)nc2n(C2CCCC2)c1=O [Palbociclib] + Cn1cnc2c(F)c(Nc3ccc(Br)cc3Cl)c(C(=O)NOCCO)cc21 [Selumetinib] (first compound max 10 µM, 7x7, partner max 10 µM) | -0.0358 | -0.13 | -0.0701 | -0.0326 | -0.0531 | -0.0082 | 0.0297 | 0.0041 | -0.0208 | -0.0004 | -0.036 | 0.0042 | 0.0912 | -0.0003 | 0.0823 | -0.0389 | -0.0247 | -0.02 | 0.0583 | -0.058
COc1cccc(OCCCN)c1-c1cc(Nc2cnc(C#N)cn2)n[nH]1 [Prexasertib] + C=CCn1c(=O)c2cnc(Nc3ccc(N4CCN(C)CC4)cc3)nc2n1-c1cccc(C(C)(C)O)n1 [AZD1775] (first compound max 1 µM, partner max 1 µM) | 0.0648 | 0.0737 | 0.0816 | 0.0361 | -0.0075 | 0.0461 | 0.0697 | 0.0716 | 0.0438 | 0.0581 | 0.0702 | 0.0017 | 0.0656 | -0.131 | 0.0341 | 0.143 | 0.105 | 0.0352 | 0.0218 | -0.0341
COc1cccc(OCCCN)c1-c1cc(Nc2cnc(C#N)cn2)n[nH]1 [Prexasertib] + CCc1c2c(nc3ccc(O)cc13)-c1cc3c(c(=O)n1C2)COC(=O)[C@]3(O)CC [SN-38] (first compound max 1 µM, 7x7, partner max 0.3 µM) | -0.0093 | 0.0033 | 0 | -0.0423 | -0.0714 | -0.012 | -0.0262 | 0.0876 | -0.0147 | 0.0039 | 0.0234 | 0.0232 | 0.0045 | -0.0001 | -0.0405 | 0.163 | -0.0675 | -0.0165 | 0.0088 | -0.0952
COc1cccc(OCCCN)c1-c1cc(Nc2cnc(C#N)cn2)n[nH]1 [Prexasertib] + CN(C)CCCOc1ccc(-c2ccc3ncc4c(c3c2)n(C2CCOCC2)c(=O)n4C)cn1 [AZD0156] (first compound max 1 µM, 7x7, partner max 1 µM) | -0.0838 | 0.0008 | -0.0373 | -0.0405 | -0.0684 | -0.0145 | -0.0002 | -0.0121 | 0.0171 | -0.0038 | -0.0509 | -0.0255 | -0.0204 | -0.0285 | -0.0115 | -0.0189 | -0.0235 | -0.0272 | -0.0026 | -0.0813
COc1cccc(OCCCN)c1-c1cc(Nc2cnc(C#N)cn2)n[nH]1 [Prexasertib] + C[C@@H]1COCCN1C2=NC(=NC(=C2)C3(CC3)[S@](=N)(=O)C)C4=C5C=CNC5=NC=C4 [AZD6738] (first compound max 1 µM, 7x7, partner max 10 µM) | -0.0175 | -0.0348 | -0.0134 | -0.0844 | -0.02 | -0.0158 | -0.022 | 0.0211 | -0.0539 | -0.0361 | -0.0036 | 0.0255 | 0.0317 | -0.174 | -0.0262 | 0.0392 | -0.0153 | -0.0334 | -0.011 | -0.0406
